# Laboratory results: ChEMBL document CHEMBL3351528, “Targeting dopamine D3 and serotonin 5-HT1A and 5-HT2A receptors for developing effective antipsychotics: synthesis, biological characterization, and behavioral studies” (J Med Chem, 2014)
# Experiments:
# [1] = biological target: 5-hydroxytryptamine receptor 2A (Rattus norvegicus, UniProt P14842); experiment: Antagonist activity at 5HT2A receptor in rat aortic rings assessed as reduction in 5-HT-induced contraction
# Mus musculus [2] = experiment: Toxicity in mouse assessed as induction of memory impairment by measuring […] to enter dark compartment at 60 mg/kg, po administered 30 mins before training measured 24 hrs after acquisition trail by passive avoidance test; assay type: organism-based; parameters: dose 60 mg/kg, route oral; conditions: in vivo
# Mus musculus [3] = experiment: Toxicity in NMRI mouse assessed as induction of catalepsy up to 90 mg/kg, sc dosed 30 mins before test; assay type: organism-based; parameters: dose 90 mg/kg, route subcutaneous; conditions: in vivo, 0.5 h
# D(3) dopamine receptor [4] = biological target: T1, D(3) dopamine receptor (Homo sapiens, UniProt P35462); experiment: Antagonist activity at human dopamine D3 receptor expressed in CHO-K1 cells assessed as reduction in dopamine-induced response by [35S]GTPgammaS binding assay; assay type: functional, cell-based
# T1 sequence (P35462 whole entry): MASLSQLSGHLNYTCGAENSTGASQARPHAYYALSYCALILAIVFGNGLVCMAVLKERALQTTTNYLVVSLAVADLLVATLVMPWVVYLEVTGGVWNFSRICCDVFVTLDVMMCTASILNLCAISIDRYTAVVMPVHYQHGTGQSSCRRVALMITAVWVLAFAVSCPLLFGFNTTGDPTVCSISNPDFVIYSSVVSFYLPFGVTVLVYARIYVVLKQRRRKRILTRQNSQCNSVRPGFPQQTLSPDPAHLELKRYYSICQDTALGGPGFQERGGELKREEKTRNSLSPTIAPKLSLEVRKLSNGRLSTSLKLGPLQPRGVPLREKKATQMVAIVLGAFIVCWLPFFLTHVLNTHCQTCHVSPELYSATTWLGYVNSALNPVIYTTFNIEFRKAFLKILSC
# Mus musculus [5] = experiment: Reduction in startle response in mouse at 30 mg/kg, po dosed 30 mins before testing; assay type: ADME, organism-based; parameters: dose 30 mg/kg, route oral; conditions: in vivo, 0.5 h
# [6] = biological target: T2, Adrenergic receptor alpha-1 (Homo sapiens, UniProt P35348+P25100+P35368); experiment: Binding affinity to alpha1 adrenoreceptor (unknown origin)
# T2 sequence (P35348 whole entry): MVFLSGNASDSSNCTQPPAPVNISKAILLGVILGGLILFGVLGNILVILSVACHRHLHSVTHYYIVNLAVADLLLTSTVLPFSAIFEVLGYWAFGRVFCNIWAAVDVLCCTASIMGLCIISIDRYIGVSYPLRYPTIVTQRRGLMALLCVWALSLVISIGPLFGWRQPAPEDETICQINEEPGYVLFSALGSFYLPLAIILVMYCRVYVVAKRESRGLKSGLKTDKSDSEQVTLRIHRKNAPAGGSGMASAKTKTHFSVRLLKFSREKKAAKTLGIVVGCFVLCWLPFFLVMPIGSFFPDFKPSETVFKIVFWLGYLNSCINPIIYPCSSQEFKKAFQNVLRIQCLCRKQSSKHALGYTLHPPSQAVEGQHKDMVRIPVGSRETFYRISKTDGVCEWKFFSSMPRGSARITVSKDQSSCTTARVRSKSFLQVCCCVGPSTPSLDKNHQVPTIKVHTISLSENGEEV
# T2 sequence (P25100 whole entry): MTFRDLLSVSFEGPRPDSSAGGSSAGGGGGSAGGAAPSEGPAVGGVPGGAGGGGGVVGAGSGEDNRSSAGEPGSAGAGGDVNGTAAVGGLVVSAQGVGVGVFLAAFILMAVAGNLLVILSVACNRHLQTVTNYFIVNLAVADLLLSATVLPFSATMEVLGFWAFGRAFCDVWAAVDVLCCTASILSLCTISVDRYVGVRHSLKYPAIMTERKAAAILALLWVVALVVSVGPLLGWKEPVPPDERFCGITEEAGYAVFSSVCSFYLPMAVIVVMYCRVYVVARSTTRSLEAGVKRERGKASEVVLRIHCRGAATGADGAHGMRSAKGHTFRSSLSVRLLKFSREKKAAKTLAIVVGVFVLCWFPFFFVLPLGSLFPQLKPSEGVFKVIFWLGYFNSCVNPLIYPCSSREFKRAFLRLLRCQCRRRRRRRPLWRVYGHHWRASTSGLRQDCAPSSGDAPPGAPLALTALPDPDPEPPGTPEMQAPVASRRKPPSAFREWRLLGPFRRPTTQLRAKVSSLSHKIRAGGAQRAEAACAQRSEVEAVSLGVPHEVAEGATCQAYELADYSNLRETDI
# T2 sequence (P35368 whole entry): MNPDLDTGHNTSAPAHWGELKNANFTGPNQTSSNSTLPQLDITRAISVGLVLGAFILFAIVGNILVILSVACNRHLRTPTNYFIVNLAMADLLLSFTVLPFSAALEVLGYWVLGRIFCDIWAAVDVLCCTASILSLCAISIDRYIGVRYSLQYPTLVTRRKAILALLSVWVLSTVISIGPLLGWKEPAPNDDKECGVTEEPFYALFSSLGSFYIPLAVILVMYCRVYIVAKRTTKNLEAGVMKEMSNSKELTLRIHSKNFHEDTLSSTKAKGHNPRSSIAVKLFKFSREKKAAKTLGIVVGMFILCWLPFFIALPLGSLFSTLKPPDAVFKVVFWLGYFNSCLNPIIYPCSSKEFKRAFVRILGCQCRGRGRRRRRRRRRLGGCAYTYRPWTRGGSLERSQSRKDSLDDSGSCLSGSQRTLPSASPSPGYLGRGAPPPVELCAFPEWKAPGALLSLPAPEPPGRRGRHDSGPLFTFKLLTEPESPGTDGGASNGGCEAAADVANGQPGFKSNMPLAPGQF
# D(3) dopamine receptor [7] = biological target: T1, D(3) dopamine receptor
# Description: Binding affinity to dopamine D3 receptor (unknown origin)
# [8] = biological target: T3, 5-hydroxytryptamine receptor 1A (Homo sapiens, UniProt P08908)
# T3 sequence (P08908 whole entry): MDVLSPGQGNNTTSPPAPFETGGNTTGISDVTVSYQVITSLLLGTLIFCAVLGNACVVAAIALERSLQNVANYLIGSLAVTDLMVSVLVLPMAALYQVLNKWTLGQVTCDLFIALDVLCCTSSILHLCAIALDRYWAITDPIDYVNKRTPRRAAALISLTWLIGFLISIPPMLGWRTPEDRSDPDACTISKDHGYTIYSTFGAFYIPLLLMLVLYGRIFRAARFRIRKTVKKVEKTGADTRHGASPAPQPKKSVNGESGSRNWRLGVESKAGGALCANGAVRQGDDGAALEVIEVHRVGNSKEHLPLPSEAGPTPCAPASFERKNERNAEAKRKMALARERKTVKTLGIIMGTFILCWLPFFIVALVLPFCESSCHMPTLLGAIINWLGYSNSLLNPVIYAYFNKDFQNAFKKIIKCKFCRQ
# Description: Binding affinity to 5HT1A receptor (unknown origin)
# hERG (KCNH2) = hERG (KCNH2) (Homo sapiens, UniProt Q12809); experiment: Inhibition of human ERG at 3 uM by whole cell based electrophysiology assay
# Chain of hERG (KCNH2) (Q12809 whole entry): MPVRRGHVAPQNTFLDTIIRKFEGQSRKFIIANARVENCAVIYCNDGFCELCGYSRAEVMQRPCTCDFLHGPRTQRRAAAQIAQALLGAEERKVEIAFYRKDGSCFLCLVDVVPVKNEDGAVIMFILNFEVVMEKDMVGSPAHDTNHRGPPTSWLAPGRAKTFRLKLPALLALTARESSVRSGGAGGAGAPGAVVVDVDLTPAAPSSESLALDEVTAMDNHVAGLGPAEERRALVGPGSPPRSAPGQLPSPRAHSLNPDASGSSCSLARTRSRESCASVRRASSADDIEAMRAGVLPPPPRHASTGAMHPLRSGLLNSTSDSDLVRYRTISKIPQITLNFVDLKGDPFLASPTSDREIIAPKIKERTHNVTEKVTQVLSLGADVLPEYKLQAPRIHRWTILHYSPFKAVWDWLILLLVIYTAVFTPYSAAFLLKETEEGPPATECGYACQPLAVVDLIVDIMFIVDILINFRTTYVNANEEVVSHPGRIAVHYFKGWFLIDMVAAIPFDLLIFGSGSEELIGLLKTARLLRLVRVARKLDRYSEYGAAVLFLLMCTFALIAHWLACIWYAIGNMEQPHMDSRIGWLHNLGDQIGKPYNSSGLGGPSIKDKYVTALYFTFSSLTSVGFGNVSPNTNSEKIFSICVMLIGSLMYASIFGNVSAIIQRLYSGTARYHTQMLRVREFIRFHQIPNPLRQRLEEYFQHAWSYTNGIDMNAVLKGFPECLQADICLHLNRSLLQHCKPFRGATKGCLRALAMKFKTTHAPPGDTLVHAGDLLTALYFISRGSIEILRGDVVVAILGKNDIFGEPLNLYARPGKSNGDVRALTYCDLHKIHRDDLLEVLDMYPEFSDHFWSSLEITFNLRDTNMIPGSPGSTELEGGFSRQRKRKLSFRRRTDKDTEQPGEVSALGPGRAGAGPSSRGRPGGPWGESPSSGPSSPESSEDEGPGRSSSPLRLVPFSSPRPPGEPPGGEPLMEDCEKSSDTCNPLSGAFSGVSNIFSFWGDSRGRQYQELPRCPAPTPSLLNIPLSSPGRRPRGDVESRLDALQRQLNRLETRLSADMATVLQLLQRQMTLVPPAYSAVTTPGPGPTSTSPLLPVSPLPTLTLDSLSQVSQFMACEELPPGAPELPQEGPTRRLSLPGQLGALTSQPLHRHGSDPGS
# Mus musculus [9] = experiment: Toxicity in mouse assessed as induction of memory impairment by measuring […] to enter dark compartment at 60 mg/kg, po administered 30 mins before training by passive avoidance test; assay type: organism-based; parameters: dose 60 mg/kg, route oral; conditions: in vivo, 0.5 h
# [10] = biological target: T4, 5-hydroxytryptamine receptor 2C (Homo sapiens, UniProt P28335)
# T4 sequence (P28335 whole entry): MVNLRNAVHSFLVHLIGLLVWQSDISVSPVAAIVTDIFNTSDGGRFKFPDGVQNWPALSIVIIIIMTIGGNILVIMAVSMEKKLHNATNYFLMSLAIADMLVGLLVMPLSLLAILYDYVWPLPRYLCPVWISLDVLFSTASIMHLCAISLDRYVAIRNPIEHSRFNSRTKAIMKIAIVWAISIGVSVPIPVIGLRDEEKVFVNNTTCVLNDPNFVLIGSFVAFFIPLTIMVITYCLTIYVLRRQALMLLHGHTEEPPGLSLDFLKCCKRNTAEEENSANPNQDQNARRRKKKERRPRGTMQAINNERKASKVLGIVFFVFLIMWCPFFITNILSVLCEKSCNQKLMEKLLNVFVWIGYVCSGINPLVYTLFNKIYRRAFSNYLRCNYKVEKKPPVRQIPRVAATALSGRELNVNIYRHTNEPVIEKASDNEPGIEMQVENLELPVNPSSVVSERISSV
# Description: Binding affinity to 5HT2C receptor (unknown origin)
# Chain of 5-hydroxytryptamine receptor 2A (P14842 whole entry): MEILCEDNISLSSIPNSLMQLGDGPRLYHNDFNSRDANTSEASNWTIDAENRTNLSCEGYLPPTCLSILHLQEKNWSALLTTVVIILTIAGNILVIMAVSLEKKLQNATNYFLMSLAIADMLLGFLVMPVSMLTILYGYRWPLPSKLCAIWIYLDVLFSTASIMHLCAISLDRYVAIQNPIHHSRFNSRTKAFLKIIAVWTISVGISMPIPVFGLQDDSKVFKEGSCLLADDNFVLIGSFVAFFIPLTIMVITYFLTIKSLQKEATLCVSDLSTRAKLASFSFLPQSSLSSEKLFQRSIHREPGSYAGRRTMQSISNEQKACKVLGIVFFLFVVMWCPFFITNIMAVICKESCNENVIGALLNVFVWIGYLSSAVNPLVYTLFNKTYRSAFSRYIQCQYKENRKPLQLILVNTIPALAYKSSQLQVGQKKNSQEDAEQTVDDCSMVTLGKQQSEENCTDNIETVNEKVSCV
compound,measurement,setting,value
O=C(NCCCCN1CCN(c2ccccc2)CC1)c1ccc2ncccc2c1,IC50,[1],2600 nM
same,Activity,Mus musculus [2],Non-toxic
same,Activity,Mus musculus [3],Non-toxic
same,IC50,D(3) dopamine receptor [4],258 nM
same,Activity,Mus musculus [5],Toxic
same,Ki,[6],50 nM
same,Ki,D(3) dopamine receptor [7],0.6 nM
same,Ki,[8],99 nM
same,inhibition at 3 µM,hERG (KCNH2),24%
same,Activity,Mus musculus [9],Toxic
same,Ki,[10],> 1000 nM
